The text below walks through data of publication PMC10095864, “Targeting HIV-1 Reverse Transcriptase Using a Fragment-Based Approach” (Molecules, 2023).

Like-named read-outs stand apart in the source and are kept apart here. Bounds are passed on as bounds.

In test [1] the target is T1, recombinant WT HIV-1 RT (Human immunodeficiency virus type 1 group M subtype B, UniProt P03367).
T1 construct: The p66/p51 HIV-1 RT heterodimer engineered with a N-terminal histidine tag; His tag (histidine tag) (N); made in house; host or cells: Escherichia coli strain M15 (vector pRT6H-PR)
Description: biochemical. The conditions noted are these: for IC50: RT Inhibition—IC50 ± SEM, WT RT DDDP activity; for Ligand efficiency (LE): binding to WT RT, LE = −1.4(logIC50)/N; for fold improvement on parent compound B-1: IC50 vs B-1 IC50 >1000 μM in the radioactive RT assay. As to the method:
(§1) The inhibitory activity of all compounds was evaluated in vitro in assays that measure the DNA-dependent DNA polymerase (DDDP) activity of HIV-1 RT. Compounds were tested against recombinant WT and drug-resistant HIV-1 RT mutants (K103N, Y181C or K103N/Y181C). […] The IC50 value of nevirapine was determined in parallel to control for the performance of the assay. […] These RT mutations either reduce the rate of entry of NNRTIs to the binding pocket (K103N) or remove aromatic interactions that favor binding (Y181C). Initially, compound IC50 values were determined in an assay that quantifies DDDP activity mediated by HIV-1 RT using a radiolabeled ^33PdTTP substrate and more recently using a nonradioactive PicoGreen-based spectrophotometric assay.
(§2) Recombinant HIV-1 RT: The p66/p51 HIV-1 RT heterodimer engineered with a N-terminal histidine tag was expressed from the pRT6H-PR vector (provided by Nicolas Sluis-Cremer) which is based on pRT6H-PROT [37], except that the RT coding region is derived from the infectious molecular clone xxLAI [38]. This xxLAI clone contains the HIV-1LAI backbone and is engineered with silent mutations introducing Xma I and Xba I sites in the RT coding region at nucleotide positions 40–45 and 1470 to 1475, respectively. pRT6H-PR expressing the NNRTI drug-resistant mutations K103N, Y181C and K103N/Y181C were generated by subcloning Xma I/Xba I fragments in xxLAI harboring the desired NNRTI mutations (Giacobbi NS and Sluis-Cremer 2017 AAC) into the corresponding restriction sites in the RT coding region of p6HRT-PR. RT was expressed in Escherichia coli strain M15 and purified using Ni-NTA chromatography as previously described. RT concentrations were determined spectrophotometrically at 280 nm using an extinction coefficient (e280) of 260, 450 M^−1 cm^−1.
(§3) Nevirapine was included in assays as a positive control for inhibiting RT polymerase activity. The DDDP assay was performed by first adding 25 ng of HIV-1 RT to test compound in 96-well plates followed by initiating RT polymerase activity by adding 200 ng of activated calf thymus (ACT) DNA (Sigma Aldrich), 0.2 µCi ^33P-α-dTTP (Perkin Elmer), 50 mM Tris-HCl pH 7.8 50 mM KCl, […], 50 µM dNTP mix (Bioline), 0.1 mg/mL bovine serum albumin (New England Biolabs), 0.01% IGEPAL (Sigma) and 1 mM dithiothreitol. Reactions contained 2.5% dimethyl sulfoxide (DMSO). Following incubation at 37 °C for 10 min, samples from duplicate wells were applied to Whatman DE81 ion-exchange paper (GE Healthcare); dried membranes were washed in 2X saline-sodium citrate (SSC) buffer; and incorporated counts were quantified using an FLP-2000 phosphorimager (Fujifilm) or Typhoon Trio Phosphorimager (GE Healthcare) as published. Dose–response curves were generated using PRISM GraphPad version 8 by plotting the log transformed drug concentrations against percentage inhibition of DDDP activity compared to the no drug control using non-linear regression analysis.
(§4) Non-radioactive DDDP Assay: DDDP assays were also performed using a PicoGreen based spectrophotometric assay to detect double-stranded DNA synthesized by recombinant HIV-1 RT [15]. Assays were performed as described for the […] DDDP assay except that instead of ACT, the reaction contained 40 nM of a template/primer comprising a 200 nt DNA template (5′-[…] […]-3′) annealed to a 18 nucleotide DNA primer (5′-[…]-3′), 50 mM Tris-HCl pH 7.8, 50 mM KCl, 10 mM MgCl2 and 50 µM dNTP mix.

Test [2] concerns the target T2, His-tagged HIV-1 RT WT (Human immunodeficiency virus type 1 group M subtype B, UniProt P03367).
T2 construct: The p66/p51 HIV-1 RT heterodimer engineered with a N-terminal histidine tag; His tag (histidine tag) (N); made in house; host or cells: Escherichia coli strain M15 (vector pRT6H-PR)
Put plainly: Surface plasmon resonance, WT RT. The class given is binding. As to the method:
(§5) Compound binding to recombinant HIV-1 RT was measured by surface plasmon resonance (SPR). SPR is an optical biosensor detection method that involves passing an analyte (often a fragment) in a buffer solution over a gold surface chip with an immobilized protein (RT enzyme) and detecting the change in plasmon resonance angle which is dependent on the refractive index of the medium near the surface. As compounds bind to the target protein, the refractive index changes proportionally to the extent of binding. This can then be used to measure the association and dissociation kinetics of binding as well as the compound’s affinity for binding.
(§6) SPR assays were performed on a Biacore S200 (GE Healthcare). His-tagged RT (WT, K103N, Y181C or K103N/Y181C) was immobilized on the surface of a Biacore compatible NIHC 1500M (Xantec) chip according to manufacturer’s instructions. Following 3 injections 300 s each of 0.5 M EDTA, the chip surface was activated with a 120 s injection of 5 mM NiCl2 followed by a 2100 s injection of 130 nM RT. The final immobilization level of RT was typically 14,000–27,000 RU. SPR experiments were carried out at 25 °C using a flow rate of 50 µL/min in running buffer. The running buffer was 1.053 × (HBS pH 7.4 + 50 µM EDTA + 0.005% Tween-20). Compounds were provided as 200 mM stocks and diluted in running buffer to obtain the concentrations required for dose-response studies (0, 6.25, 12.5, 25, 50, 100 and 200 µM). Raw sensorgram data were analyzed using Biacore S200 Evaluation Software. Dose-response determinations were evaluated using a 1:1 binding model. KD values were determined by Biacore S200 Evaluation Software Version 1.0. assuming 1:1 binding. For compounds approaching saturation, Rmax was floated. For compounds with insufficient curvature, Rmax was fixed based on a control. Errors were determined as the standard error in the dose-response fit, as calculated by Biacore S200 Evaluation Software.

In test [3] the target is T3, His-tagged HIV-1 RT K103N (Human immunodeficiency virus type 1 group M subtype B, UniProt P03367, K702N).
T3 construct: The p66/p51 HIV-1 RT heterodimer engineered with a N-terminal histidine tag; His tag (histidine tag) (N); made in house; host or cells: Escherichia coli strain M15 (vector pRT6H-PR)
Put plainly: Surface plasmon resonance, K103N RT. The conditions noted are these: ± standard error of dose–response fit, n = 1; NB = no binding observed; read-out: SPR—KD, K103N. As to the method:
as §5, §6

Test [4] deals with T4, HIV-1 RT K103N/Y181C mutant (Human immunodeficiency virus type 1 group M subtype B, UniProt P03367, K702N/Y780C).
T4 construct: The p66/p51 HIV-1 RT heterodimer engineered with a N-terminal histidine tag; His tag (histidine tag) (N); made in house; host or cells: Escherichia coli strain M15 (vector pRT6H-PR)
Put plainly: DDDP activity assay, K103N/Y181C RT mutant. The class given is biochemical. As to the method: as §1, §2, §3, §4

Setting [5] is: WT (PicoGreen assay), nonradioactive PicoGreen assay.
[6] abbreviates: WT, PicoGreen or 33P radiolabeled assay, value not marked as PicoGreen, n ≥ 2.
[7] abbreviates: read-out: SPR—KD, WT, ± standard error of dose–response fit, n = 1, NB = no binding observed.

In general, IC50 refers to the point on the concentration scale where inhibition reaches its midpoint. For `Cc1ccnc2c1NC(=O)c1cccnc1N2C1CC1` [Nevirapine, nevirapine, reference compound], the IC50 in test [1] (setting [5]) was 0.44 ± 0.03 µM.
For the molecule `CCOC(=O)c1cnn2ccc(C)cc12` [compound 3, Ethyl 5-Methylpyrazolo[1,5-a]pyridine-3-carboxylate], the concentration for half-maximal inhibition (IC50) in test [1] (setting [6]) was above 1000 µM.
For the molecule `CCOC(=O)c1cnn2cc(C)ccc12` [compound 4, Ethyl 6-Methylpyrazolo[1,5-a]pyridine-3-carboxylate], the IC50 in test [1] (setting [6]) was above 1000 µM.
On the same count and under the same terms, as for `CCOC(=O)c1cnn2cc(Br)ccc12` [compound 7, Ethyl 6-Bromopyrazolo[1,5-a]pyridine-3-carboxylate], the figure is above 1000 µM.
By Kd is commonly meant the concentration at which binding is half-saturated. Take `CCOC(=O)c1cnn2c(C)ccc(Br)c12` [compound 9, Ethyl 4-Bromo-7-methylpyrazolo[1,5-a]pyridine-3-carboxylate]: in test [2] (setting [7]), the dissociation constant (Kd) is above 200 µM. Also, the half-inhibitory concentration (IC50) in test [1] (setting [5]) was determined as 155 ± 19 µM. In addition, the “Ligand efficiency (LE)” value in test [1] was 0.33 kcal/mol/HA.
Take `CCOC(=O)c1cnn2cc(OC)cc(Br)c12` [compound 10, Ethyl 4-Bromo-6-methoxypyrazolo[1,5-a]pyridine-3-carboxylate]: the Kd in test [2] amounted to 1570 ± 105 µM; in test [3], 757 ± 81 µM. In addition, the 50% inhibitory concentration (IC50) in test [1] (setting [5]) was 315 ± 19 µM. Moreover, in test [1], the “Ligand efficiency (LE)” value is 0.29 kcal/mol/HA.
Take `CCOC(=O)c1cnn2c(C)ccc(F)c12` [compound 11, Ethyl 4-Fluoro-7-methylpyrazolo[1,5-a]pyridine-3-carboxylate]: the Kd in test [2] (setting [7]) was above 200 µM. In addition, the IC50 in test [1] (setting [5]) is above 1000 µM.
For `CCOC(=O)c1cnn2c(C)ccc(Cl)c12` [compound 12, Ethyl 4-Chloro-7-methylpyrazolo[1,5-a]pyridine-3-carboxylate], the half-maximal inhibitory concentration (IC50) in test [1] (setting [5]) is above 1000 µM.
Take `CCOC(=O)c1cnn2cc(Br)cc(OC)c12` [compound 13, Ethyl 6-Bromo-4-methoxypyrazolo[1,5-a]pyridine-3-carboxylate]: in test [1] (setting [6]), the IC50 is above 1000 µM.
Turning to `CCOC(=O)c1cnn2c(C)cc(Cl)cc12` [compound 14, Ethyl 5-Chloro-7-methylpyrazolo[1,5-a]pyridine-3-carboxylate], the Kd in test [2] (setting [7]) was above 200 µM. Further, the half-maximal inhibitory concentration (IC50) in test [1] (setting [6]) was above 1000 µM.
`CCOC(=O)c1cnn2ccc(C(=O)OC)cc12` [compound 15, 3-Ethyl 5-Methylpyrazolo[1,5-a]pyridine-3,5-dicarboxylate]: in test [1] (setting [6]), the concentration for half-maximal inhibition (IC50) is above 1000 µM.
Same read-out and setting: as for `CCOC(=O)c1cnn2ccc(NC(=O)OC(C)(C)C)cc12` [compound 16, Ethyl 5-((Tert-butoxycarbonyl)amino)pyrazolo[1,5-a]pyridine-3-carboxylate], the figure is above 1000 µM.
As for `O=C(O)c1cnn2cccc(Br)c12` [compound 17, 4-Bromopyrazolo[1,5-a]pyridine-3-carboxylic Acid], the Kd in test [2] (setting [7]) is above 200 µM. The half-maximal inhibitory concentration (IC50) in test [1] (setting [6]) is above 1000 µM.
For the molecule `COC(=O)c1cnn2cccc(Br)c12` [compound 18, Methyl 4-Bromopyrazolo[1,5-a]pyridine-3-carboxylate], in test [1] (setting [5]), the IC50 was above 1000 µM.
The same measure, in the same setting: as for `CCCOC(=O)c1cnn2cccc(Br)c12` [compound 19, Propyl 4-bromopyrazolo[1,5-a]pyridine-3-carboxylate], the figure is above 1000 µM.
`CCNC(=O)c1cnn2cccc(Br)c12` [compound 20, 4-Bromo-N-ethylpyrazolo[1,5-a]pyridine-3-carboxamide]: the IC50 in test [1] (setting [6]) was above 1000 µM.
Regarding `O=C(NCCc1ccc(O)cc1)c1cnn2cccc(Br)c12` [compound 22, 4-Bromo-N-(4-hydroxyphenethyl)pyrazolo[1,5-a]pyridine-3-carboxamide], the IC50 in test [1] (setting [5]) came out at 111 µM.
On to `CCOC(=O)c1cnn2cccc(C#CCN(C)C)c12` [compound 24, Ethyl 4-(3-(Dimethylamino)prop-1-yn-1-yl)pyrazolo[1,5-a]pyridine-3-carboxylate], for which the IC50 in test [1] (setting [6]) is above 1000 µM.
On the same count and under the same terms, the value for `CCOC(=O)c1cnn2cccc(C#CCCO)c12` [compound 25, Ethyl 4-(4-Hydroxybut-1-yn-1-yl)pyrazolo[1,5-a]pyridine-3-carboxylate] was above 1000 µM.
Take `CCOC(=O)c1cnn2cccc(C#CCCCCCO)c12` [compound 26, Ethyl 4-(7-Hydroxyhept-1-yn-1-yl)pyrazolo[1,5-a]pyridine-3-carboxylate]: the dissociation constant Kd stood at 173 ± 9 µM in test [2] and 233 ± 22 µM in test [3]. Further, the “fold improvement on parent compound B-1” value in test [1] is on record as above 20 fold. Besides, the concentration for half-maximal inhibition (IC50) in test [1] (setting [6]) was 24 ± 6 µM; in test [4], 35 ± 7 µM. Also, in test [1], the “Ligand efficiency (LE)” value is 0.30 kcal/mol/HA.
As to `CCCC#Cc1cccn2ncc(C(=O)OCC)c12` [compound 28, Ethyl 4-(pent-1-yn-1-yl)pyrazolo[1,5-a]pyridine-3-carboxylate], binding in test [2] was characterised by a dissociation constant (Kd) of 275 ± 9 µM. In test [1], the “fold improvement on parent compound B-1” value is on record as above 20 fold and the “Ligand efficiency (LE)” value is 0.32 kcal/mol/HA. For the same molecule, the half-maximal inhibitory concentration (IC50) in test [1] (setting [6]) is 53 ± 4 µM. Besides, half-maximal inhibition in test [4] (IC50) was put at 105 ± 6 µM.
In the same order, the values of `C#Cc1cccn2ncc(C(=O)OCC)c12` [compound 29, Ethyl 4-ethynylpyrazolo[1,5-a]pyridine-3-carboxylate] are 395 ± 35 µM, above 20 fold, 0.40 kcal/mol/HA, 27 ± 26 µM and 43 ± 14 µM.
